Experimental data reported in ChEMBL document CHEMBL1127857, “Antitumor agents. 155. Synthesis and biological evaluation of 3',6,7-substituted 2-phenyl-4-quinolones as antimicrotubule agents” (J Med Chem, 1994).

Legend:
Tubulin (Bos taurus) = Tubulin (Bos taurus) (UniProt Q6B856+Q862L2+Q862F3); assay: Inhibition of colchicine binding to tubulin was evaluated only when polymerization IC50 <=1.0 uM; assay type: protein assay
Tubulin = Tubulin (Bos taurus, UniProt Q6B856+Q862L2+Q862F3); assay: Inhibition of bovine tubulin polymerization; assay type: functional
SF-268 = assay: Tested for in vitro tumor cell growth inhibition of CNS tumor cell line SF-268; assay type: functional; details: Homo sapiens
SF-295 = assay: Tested for in vitro tumor cell growth inhibition of CNS tumor cell line SF-295; assay type: functional; details: Homo sapiens
DU-145 = assay: Tested for in vitro tumor cell growth inhibition of prostate cancer cell line DU-145; assay type: functional; details: Homo sapiens
HCT-116 = assay: Tested for in vitro tumor cell growth inhibition of colon cancer cell line HCT116; assay type: functional; details: Homo sapiens
KM-20L2 = assay: Tested for in vitro tumor cell growth inhibition of colon cancer cell line […]; assay type: functional; details: Homo sapiens
K562 = assay: Tested for in vitro tumor cell growth inhibition of leukemia cell line K-562; assay type: functional; details: Homo sapiens
NCI-H226 = assay: Tested for in vitro tumor cell growth inhibition of non-small cell lung cancer cell line NCI-H226; assay type: functional; details: Homo sapiens
OVCAR-4 = assay: Tested for in vitro tumor cell growth inhibition of ovarian cancer cell line OVCAR-4; assay type: functional; details: Homo sapiens
RXF 393 = assay: Tested for in vitro tumor cell growth inhibition of renal cancer cell line RXF-393; assay type: functional; details: Homo sapiens
SK-MEL-5 = assay: Tested for in vitro tumor cell growth inhibition of melanoma cell line SK-Mel-5; assay type: functional; details: Homo sapiens
MDA-N = assay: Tested for in vitro tumor cell growth inhibition of breast cancer cell line MDA-N; assay type: functional; details: Homo sapiens
OVCAR-3 = assay: Tested for in vitro tumor cell growth inhibition of ovarian cancer cell line OVCAR-3; assay type: functional; details: Homo sapiens

## Oc1cc(-c2cccc(OC(F)(F)F)c2)nc2ccc(N3CCCC3)cc12
Tubulin (Bos taurus)
  inhibition: 58%
Tubulin
  IC50: 720 nM

## CC(=O)Nc1ccc2nc(-c3cccc(F)c3)cc(O)c2c1
SF-268
  GI50: 25700 nM
SF-295
  GI50: 38900 nM

## COc1cccc(-c2cc(O)c3cc(N4CCN(C)CC4)ccc3n2)c1
DU-145
  GI50: 2510 nM
HCT-116
  GI50: 437 nM
KM-20L2
  GI50: 1510 nM
K562
  GI50: 537 nM
NCI-H226
  GI50: 1510 nM
OVCAR-4
  GI50: > 10000 nM
RXF 393
  GI50: 457 nM
SF-268
  GI50: 1860 nM
SF-295
  GI50: 1820 nM
SK-MEL-5
  GI50: 912 nM
Tubulin
  IC50: 14000 nM
MDA-N
  GI50: 200 nM

## CN(C)c1cccc(-c2cc(O)c3cc4c(cc3n2)OCO4)c1
Tubulin (Bos taurus)
  inhibition: 29%
Tubulin
  IC50: 700 nM

## COc1cccc(-c2cc(O)c3cc(Cl)ccc3n2)c1
Tubulin (Bos taurus)
  inhibition: 16%
Tubulin
  IC50: 700 nM

## Oc1cccc(-c2cc(O)c3cc4c(cc3n2)OCO4)c1
HCT-116
  GI50: 1820 nM
KM-20L2
  GI50: 3310 nM
K562
  GI50: 724 nM
SF-268
  GI50: 2290 nM
SF-295
  GI50: 5500 nM
SK-MEL-5
  GI50: 1480 nM
Tubulin (Bos taurus)
  inhibition: 26%
Tubulin
  IC50: 470 nM

## Oc1cc(-c2cccc(OC(F)(F)F)c2)nc2cc3c(cc12)OCO3
DU-145
  GI50: 45.7 nM
HCT-116
  GI50: 14.1 nM
KM-20L2
  GI50: 36.3 nM
K562
  GI50: 36.3 nM
NCI-H226
  GI50: 195 nM
OVCAR-4
  GI50: 25.7 nM
OVCAR-3
  GI50: 63.1 nM
RXF 393
  GI50: 40.7 nM
SF-295
  GI50: 25.7 nM
SK-MEL-5
  GI50: 170 nM
Tubulin (Bos taurus)
  inhibition: 40%
Tubulin
  IC50: 500 nM
MDA-N
  GI50: < 10 nM

## Nc1cccc(-c2cc(O)c3cc4c(cc3n2)OCO4)c1
HCT-116
  GI50: 479 nM
KM-20L2
  GI50: 708 nM
K562
  GI50: 891 nM
NCI-H226
  GI50: 2190 nM
OVCAR-4
  GI50: 38900 nM
RXF 393
  GI50: 603 nM
SF-268
  GI50: 759 nM
SF-295
  GI50: 2400 nM
SK-MEL-5
  GI50: 933 nM
Tubulin (Bos taurus)
  inhibition: 16%
Tubulin
  IC50: 730 nM

## Oc1cc(-c2cccc(F)c2)nc2cc3c(cc12)OCO3
HCT-116
  GI50: 219 nM
K562
  GI50: 339 nM
NCI-H226
  GI50: 955 nM
OVCAR-3
  GI50: 288 nM
SF-268
  GI50: 661 nM
SF-295
  GI50: 141 nM
SK-MEL-5
  GI50: 269 nM
Tubulin (Bos taurus)
  inhibition: 51%
Tubulin
  IC50: 530 nM

## Nc1ccc2nc(-c3cccc(Cl)c3)cc(O)c2c1
KM-20L2
  GI50: 3160 nM
OVCAR-4
  GI50: > 100000 nM
Tubulin
  IC50: 6100 nM

## CC(=O)Nc1ccc2nc(-c3cccc(Cl)c3)cc(O)c2c1
OVCAR-4
  GI50: > 100000 nM
Tubulin
  IC50: 2300 nM

## COc1cccc(-c2cc(O)c3cc(N4CCCC4)ccc3n2)c1
DU-145
  GI50: < 1 nM
HCT-116
  GI50: < 1 nM
KM-20L2
  GI50: < 1 nM
K562
  GI50: < 1 nM
NCI-H226
  GI50: < 1 nM
OVCAR-4
  GI50: 2000 nM
OVCAR-3
  GI50: < 1 nM
RXF 393
  GI50: < 1 nM
SF-268
  GI50: < 1 nM
SF-295
  GI50: < 1 nM
SK-MEL-5
  GI50: < 1 nM
MDA-N
  GI50: < 1 nM

## Nc1ccc2nc(-c3cccc(C(F)(F)F)c3)cc(O)c2c1
DU-145
  GI50: 43700 nM
HCT-116
  GI50: 52500 nM
KM-20L2
  GI50: 34700 nM
Tubulin
  IC50: > 40000 nM

## COc1cc([C@@H]2c3cc4c(cc3[C@H](O)[C@H]3COC(=O)[C@H]23)OCO4)cc(OC)c1OC
Tubulin (Bos taurus)
  inhibition: 84%

## Oc1cc(-c2cccc(Br)c2)nc2cc3c(cc12)OCO3
HCT-116
  GI50: 3390 nM
KM-20L2
  GI50: 3090 nM
K562
  GI50: 3470 nM
NCI-H226
  GI50: 3800 nM
OVCAR-4
  GI50: > 100000 nM
OVCAR-3
  GI50: 4270 nM
RXF 393
  GI50: 2400 nM
SF-268
  GI50: 3020 nM
SF-295
  GI50: 331 nM
SK-MEL-5
  GI50: 4370 nM
Tubulin (Bos taurus)
  inhibition: 26%
Tubulin
  IC50: 530 nM

## COc1cccc(-c2cc(O)c3cc(N(C)C)ccc3n2)c1
DU-145
  GI50: 34.7 nM
KM-20L2
  GI50: 4.57 nM
K562
  GI50: 8.91 nM
NCI-H226
  GI50: 44.7 nM
OVCAR-4
  GI50: 5500 nM
OVCAR-3
  GI50: 15.1 nM
RXF 393
  GI50: 18.6 nM
SF-268
  GI50: 43.6 nM
SF-295
  GI50: 15.5 nM
SK-MEL-5
  GI50: 25.7 nM
Tubulin (Bos taurus)
  inhibition: 14%
Tubulin
  IC50: 380 nM
MDA-N
  GI50: 1.7 nM

## CNc1cccc(-c2cc(O)c3cc4c(cc3n2)OCO4)c1
HCT-116
  GI50: 245 nM
KM-20L2
  GI50: 331 nM
K562
  GI50: 398 nM
NCI-H226
  GI50: 537 nM
OVCAR-3
  GI50: 339 nM
RXF 393
  GI50: 363 nM
SF-268
  GI50: 5500 nM
SF-295
  GI50: 324 nM
SK-MEL-5
  GI50: 447 nM
Tubulin (Bos taurus)
  inhibition: 17%
Tubulin
  IC50: 650 nM

## COc1cccc(-c2cc(O)c3cc(N4CCOCC4)ccc3n2)c1
DU-145
  GI50: 43.6 nM
HCT-116
  GI50: 26.9 nM
KM-20L2
  GI50: 33.9 nM
K562
  GI50: 24.6 nM
NCI-H226
  GI50: 33.9 nM
OVCAR-4
  GI50: 6310 nM
OVCAR-3
  GI50: 19.9 nM
SF-268
  GI50: 53.7 nM
SF-295
  GI50: 49 nM
SK-MEL-5
  GI50: 35.5 nM
Tubulin (Bos taurus)
  inhibition: 43%
Tubulin
  IC50: 360 nM
MDA-N
  GI50: 8.32 nM

## CCOc1cccc(-c2cc(O)c3cc4c(cc3n2)OCO4)c1
DU-145
  GI50: 251 nM
HCT-116
  GI50: 174 nM
KM-20L2
  GI50: 182 nM
K562
  GI50: 44.7 nM
NCI-H226
  GI50: 324 nM
OVCAR-3
  GI50: 166 nM
RXF 393
  GI50: 275 nM
SF-268
  GI50: 269 nM
SF-295
  GI50: 64.6 nM
SK-MEL-5
  GI50: 191 nM
Tubulin (Bos taurus)
  inhibition: 40%
Tubulin
  IC50: 470 nM
MDA-N
  GI50: 17.8 nM

## COc1cccc(-c2cc(O)c3cc4c(cc3n2)OCO4)c1
Tubulin (Bos taurus)
  inhibition: 39%
Tubulin
  IC50: 570 nM

## Oc1cc(-c2cccc(Cl)c2)nc2cc3c(cc12)OCO3
KM-20L2
  GI50: 269 nM
OVCAR-4
  GI50: > 75900 nM
SK-MEL-5
  GI50: 209 nM
Tubulin (Bos taurus)
  inhibition: 45%
Tubulin
  IC50: 370 nM

## Oc1cc(-c2cccc(OCc3ccccc3)c2)nc2cc3c(cc12)OCO3
DU-145
  GI50: 1100 nM
HCT-116
  GI50: 389 nM
KM-20L2
  GI50: 224 nM
K562
  GI50: 363 nM
NCI-H226
  GI50: 229 nM
OVCAR-3
  GI50: 245 nM
RXF 393
  GI50: 407 nM
SF-268
  GI50: 12900 nM
SF-295
  GI50: 447 nM
SK-MEL-5
  GI50: 282 nM
Tubulin (Bos taurus)
  inhibition: 26%
Tubulin
  IC50: 450 nM
MDA-N
  GI50: 145 nM

## COc1ccc(CCc2cc(OC)c(OC)c(OC)c2)cc1O
Tubulin
  IC50: 630 nM

## COc1cccc(-c2cc(O)c3cc(N)ccc3n2)c1
KM-20L2
  GI50: 3470 nM
Tubulin
  IC50: 8700 nM

## Oc1cc(-c2ccccc2)nc2cc3c(cc12)OCO3
Tubulin (Bos taurus)
  inhibition: 26%
Tubulin
  IC50: 630 nM

## Oc1cc(-c2cccc(C(F)(F)F)c2)nc2cc3c(cc12)OCO3
KM-20L2
  GI50: 1380 nM
Tubulin (Bos taurus)
  inhibition: 5%
Tubulin
  IC50: 820 nM

## COc1cccc(-c2cc(O)c3cc(NC(C)=O)ccc3n2)c1
SF-268
  GI50: 5500 nM
Tubulin
  IC50: 2100 nM
